From patent US20220371989A1, “N-ACYL-TYROSINE DERIVATIVES AND USES THEREOF” (Sederma, priority 2019, published 2022) come the findings set out here.

Each structure is given as a SMILES string. “Also recorded” adds a separate entry of the source.

Type in all cases: cell-based
For assay [1], the system named is Candida albicans ATCC 14035. In words: microbroth dilution antimicrobial assay, Candida albicans ATCC 14035. An excerpt:
(§1) α-Methylation of N-pamitoyltyrosines confers antimicrobial activity. Compound (1) was initially screened for antimicrobial activity against the following panel of pathogenic bacteria and fungi in Table 1 in microbroth dilution assays: methicillin-resistant Staphylococcus aureus (MRSA), Staphylococcus warneri, vancomycin-resistant Enterococcus faecium (VRE), Pseudomonas aeruginosa, Proteus vulgaris and Candida albicans. […]
(§2) Evaluation of antimicrobial activity and cytotoxicity. […] Antimicrobial activity of 1-4 was evaluated against all five clinical Enterococcus isolates in addition to methicillin-resistant Staphylococcus aureus ATCC 33591 (MRSA), S. warneri ATCC 17917, vancomycin-resistant Enterococcus faecium EF379 (VRE), Pseudomonas aeruginosa ATCC 14210, Proteus vulgaris ATCC 12454 and Candida albicans ATCC 14035. All testing was carried out in triplicate according to the Clinical Laboratory Standards Institute testing standards in a 96-well plate microbroth dilution assay as previously described.^14 Optical density was measured using a Thermo Scientific Varioskan Flash plate reader at 600 nm, recording at time zero and then again after incubation for 22 h (37° C.) to determine percent growth inhibition. […] For both antimicrobial and cytotoxicity data, growth inhibition was expressed as a percentage and plotted against the logarithm of concentration.

Assay [2] concerns Staphylococcus warneri ATCC 17917. The experiment in a line: microbroth dilution antimicrobial assay, S. warneri ATCC 17917. Conditions: for IC50: ATCC17917, Staphylococcus warneri ATCC 17917, 22 h, 37° C., triplicate, read-out: IC50 of N-Acyltyrosines; for IC50 / growth inhibition (in words): microbroth dilution; for growth at the highest concentration tested (in words): 128 μg/mL. An excerpt: (§3) α-Methylation of N-pamitoyltyrosines confers antimicrobial activity. Compound (1) was initially screened for antimicrobial activity against the following panel of pathogenic bacteria and fungi in Table 1 in microbroth dilution assays: methicillin-resistant Staphylococcus aureus (MRSA), Staphylococcus warneri, vancomycin-resistant Enterococcus faecium (VRE), Pseudomonas aeruginosa, Proteus vulgaris and Candida albicans. […] The inventors were aware of no reports on anti-Staphylococcus activity of N-acyltyrosines or on anti-Enterococcal activity of any N-acylated amino acid; thus, it was hypothesized that the α-methyl substituent of compound (1) may be a key component of the antimicrobial pharmacophore of compound 1, may confer Staphylococcus inhibitory activity to N-acyltyrosines, and/or perhaps may play a role in their Enterococcus activity.
(§4) Evaluation of antimicrobial activity and cytotoxicity. The following five Enterococcus spp. were isolated from clinical specimens at the Atlantic Veterinary College (AVC) by the AVC Diagnostic Services Bacteriology Laboratory. Isolates were identified using the Bruker microflex LT MALDI-TOF with MBT Compass version 4.179. The direct colony transfer method was used with the Bruker Matrix HCCA (α-cyano-4-hydroxycinnamic acid) overlay, following manufacturer guidelines. Score values between 2.00 and 3.00 were considered high confidence identifications. The following isolates (with source species) were identified: E. faecium 15337 (feline), E. faecalis 16371 (canine), E. gallinarum 20993 (erinaceine), E. casseliflavus 15984 (equine) and E. hirae 17446 (avine). Antimicrobial activity of 1-4 was evaluated against all five clinical Enterococcus isolates in addition to methicillin-resistant Staphylococcus aureus ATCC 33591 (MRSA), S. warneri ATCC 17917, vancomycin-resistant Enterococcus faecium EF379 (VRE), Pseudomonas aeruginosa ATCC 14210, Proteus vulgaris ATCC 12454 and Candida albicans ATCC 14035. All testing was carried out in triplicate according to the Clinical Laboratory Standards Institute testing standards in a 96-well plate microbroth dilution assay as previously described.^14 Optical density was measured using a Thermo Scientific Varioskan Flash plate reader at 600 nm, recording at time zero and then again after incubation for 22 h (37° C.) to determine percent growth inhibition. Cytotoxicity was evaluated against Vero kidney cell line from African green monkey (Cercopithecus aethiops), MCF7 human breast adenocarcinoma cells (ATCC HTB-22), human breast adenocarcinoma cells (ATCC HTB-26) and HCT-116 human colorectal carcinoma cells (ATCC CCL-247). All assays were carried out as described previously.^14 Fluorescence was measured using a Thermo Scientific Varioskan Flash plate reader at 560/12 excitation, 590 nm emission both at time zero and 4 h after alamarBlue (Invitrogen) addition. For both antimicrobial and cytotoxicity data, growth inhibition was expressed as a percentage and plotted against the logarithm of concentration.

Assay [3] has as its system Enterococcus faecalis 16371. In words: microbroth dilution antimicrobial assay, E. faecalis 16371. Conditions: for IC50: Enterococcus faecalis 16371, microbroth dilution, 22 h, 37° C., triplicate, read-out: IC50 of N-Acyltyrosines. The method, then: (§5) To test the proposed structure-activity relationship (SAR), a structural analogue compound (2) of compound (1) was synthesized that lacks an a-methyl substituent, and compound (2) was tested for antimicrobial activity in parallel with compound (1). Analogues (3) and (4) were also synthesized and assayed to further support a potential SAR involving the O-methyl substituent (FIG. 16-21). To thoroughly characterize the anti-Enterococcal activity of compounds (1)-(4), five veterinary clinical isolates from veterinary cases (in addition to VRE EF379) were obtained for this study. All five clinical isolates were classified as vancomycin-susceptible.
as §4

For another assay, the system named is Enterococcus hirae 17446. In words: microbroth dilution antimicrobial assay, E. hirae 17446. Conditions: for IC50: Enterococcus hirae 17446, microbroth dilution, 22 h, 37° C., triplicate, read-out: IC50 of N-Acyltyrosines. The method, then: as §5, §4
Assay [4] concerns Pseudomonas aeruginosa ATCC 14210. The experiment in a line: microbroth dilution antimicrobial assay, P. aeruginosa ATCC 14210.
Text: as §1, §2

Assay [5] deals with Proteus vulgaris ATCC 12454. The experiment in a line: microbroth dilution antimicrobial assay, Proteus vulgaris ATCC 12454.
Text: as §1, §2

The test system of assay [6] is Staphylococcus aureus ATCC 33591 (MRSA). In words: microbroth dilution antimicrobial assay, S. aureus ATCC 33591 (MRSA). Conditions: for growth inhibition (in words): S. aureus (MRSA); for growth inhibition (in words) / IC50: microbroth dilution; for IC50: Staphylococcus aureus ATCC 33591 (MRSA), 22 h, 37° C., triplicate, read-out: IC50 of N-Acyltyrosines; for growth at the highest concentration tested (in words): 128 μg/mL.
Text: as §3, §4

Assay [7] deals with Enterococcus casseliflavus 15984. The experiment in a line: microbroth dilution antimicrobial assay, E. casseliflavus 15984. The conditions noted are these: for IC50: Enterococcus casseliflavus 15984, microbroth dilution, 22 h, 37° C., triplicate, read-out: IC50 of N-Acyltyrosines. Here is the method:
as §5, §4

Assay [8] has as its system Enterococcus gallinarum 20993. In words: microbroth dilution antimicrobial assay, E. gallinarum 20993. Conditions: for IC50: Enterococcus gallinarum 20993, microbroth dilution, 22 h, 37° C., triplicate, read-out: IC50 of N-Acyltyrosines. Here is the method:
as §5, §4

Assay [9] relates to Enterococcus faecium 15337. The experiment in a line: microbroth dilution antimicrobial assay, E. faecium 15337. Conditions: for IC50: Enterococcus faecium 15337, microbroth dilution, 22 h, 37° C., triplicate, read-out: IC50 of N-Acyltyrosines. The method, then: as §5, §4
The subject of assay [10] is Enterococcus faecium EF379 (VRE). In words: microbroth dilution antimicrobial assay, E. faecium EF379 (VRE). The conditions noted are these: for IC50: Enterococcus faecium EF379 (VRE), 22 h, 37° C., triplicate, read-out: IC50 of N-Acyltyrosines.
Text: as §3, §5, §4

Consider `CCCCCCCCCCCCCCCC(=O)N[C@@](C)(Cc1ccc(OC)cc1)C(=O)O` [Compound 1, N-Palmitoyl-α,O-dimethyl-L-tyrosine], for which the IC50 is above 286 µM in [1] (ATCC14035, Candida albicans ATCC 14035, microbroth dilution, read-out: IC50 of N-Acyltyrosines); above 286 µM in assay [2]; 7.4 µM in assay [3]; 4.1 µM with Enterococcus hirae 17446; above 286 µM in assay [4] (ATCC14210, Pseudomonas aeruginosa ATCC 14210, microbroth dilution, read-out: IC50 of N-Acyltyrosines); above 286 µM in [5] (ATCC12454, Proteus vulgaris ATCC 12454, microbroth dilution, read-out: IC50 of N-Acyltyrosines). Also, the half-inhibitory concentration (IC50) is above 286 µM in assay [6]; 3.1 µM in assay [7]; 4 µM in [8]; 7.2 µM in [9]; 1.6 µM in assay [10] (microbroth dilution). Moreover, the “antimicrobial activity (in words)” value in assay [1] (fungal pathogen Candida albicans, initial screen) was “no activity was observed”; in assay [4] (Gram-negative pathogen Pseudomonas aeruginosa, initial screen), “no activity was observed”; in assay [5] (Gram-negative pathogen Proteus vulgaris, initial screen), “no activity was observed”. Moreover, the Incomplete growth inhibition was below 50% in [2] (S. warneri, from 2-64 μg/mL (footnote b)) and below 75% in [6] (S. aureus, 8-128 μg/mL (footnote b)). The “growth inhibition (in words)” value in assay [2] (S. warneri) is reported as “Growth inhibition was observed”; in assay [6] it was “Growth inhibition was observed; also recorded: inhibited”; in assay [10] (VRE, initial screen, microbroth dilution), “Growth inhibition was observed”. Also, the “concentration at which maximum inhibition was achieved” value in assay [6] (S. aureus, inhibition incomplete, plateaued at higher concentrations (FIG. 25)) is 8 µg/mL.

Consider `CCCCCCCCCCCCCCCC(=O)N[C@@H](Cc1ccc(OC)cc1)C(=O)O` [Compound 2, N-Palmitoyl-O-methyl-L-tyrosine], for which the IC50 was above 295 µM in [2]; above 295 µM in assay [3]; 3.6 µM in the assay on Enterococcus hirae 17446; above 295 µM in assay [6]; 10.7 µM in assay [7]; 71.5 µM in [8]. In addition, the IC50 in assay [9] is 10.5 µM; in assay [10] (microbroth dilution), 13.3 µM. In addition, the “growth at the highest concentration tested (in words)” value in [2] (S. warneri) and in assay [6] (S. aureus) was “unaffected” throughout. For the same compound, the “Enterococcus inhibitory activity (in words)” value in assay [3] (E. faecalis 16371, FIG. 24 legend) was “inactive”.

Regarding `CCCCCCCCCCCCCCCC(=O)N[C@@](C)(Cc1ccc(O)cc1)C(=O)O` [Compound 3, N-Palmitoyl-α-methyl-L-tyrosine], the IC50 is 9.2 to 18.4 µM in assay [2]; 9.2 to 18.4 µM in assay [3]; 4.6 µM in the assay on Enterococcus hirae 17446; 9.2 to 18.4 µM in assay [6]; 9 µM in assay [7]; 4.6 µM in [8]. In addition, the concentration for half-maximal inhibition (IC50) was determined as 9.9 µM in [9] and 5.3 µM in [10] (microbroth dilution). Besides, the “growth inhibition (in words)” value in assay [2] (S. warneri) and in assay [6] was “inhibited” each time.

On to `CCCCCCCCCCCCCCCC(=O)N[C@@H](Cc1ccc(O)cc1)C(=O)O` [Compound 4, N-Palmitoyl-L-tyrosine], for which the IC50 in assay [2] is above 305 µM; in assay [3], 77.1 µM; in the assay on Enterococcus hirae 17446 it was 5.6 µM; in [6] it was above 305 µM; in assay [7] it was 32.1 µM; in [8] it was 146 µM. For the same compound, the IC50 was above 305 µM in [9] and 10.7 µM in assay [10] (microbroth dilution). Also, the “growth at the highest concentration tested (in words)” value in assay [2] (S. warneri) and in assay [6] (S. aureus) was “unaffected” each time. Besides, the “Enterococcus inhibitory activity (in words)” value in assay [9] (E. faecium 15337, FIG. 24 legend) is “inactive”. Besides, the Incomplete growth inhibition in assay [9] (E. faecium 15337, at all tested concentrations (footnote b)) was below 50.

As to `CO[C@H]1/C=C/O[C@@]2(C)Oc3c(C)c(O)c4c(O)c(c(/C=N/N5CCN(C)CC5)c(O)c4c3C2=O)NC(=O)/C(C)=C\C=C\[C@H](C)[C@H](O)[C@@H](C)[C@@H](O)[C@@H](C)[C@H](OC(C)=O)[C@@H]1C` [RIF, reference compound], the “IC50 of positive control antibiotic” value in [3] (E. faecalis 16371, positive control) is above 8 µg/mL; in the assay on Enterococcus hirae 17446 (E. hirae 17446, positive control) it was below 0.5 µg/mL; in assay [7] (E. casseliflavus 15984, positive control) it was 0.9 µg/mL; in assay [8] (E. gallinarum 20993, positive control), 3 µg/mL; in assay [9] (E. faecium 15337, positive control) it was above 16 µg/mL; in assay [10] (E. faecium EF379, positive control) it was 4 µg/mL.

For `CN[C@H](CC(C)C)C(=O)N[C@H]1C(=O)N[C@@H](CC(N)=O)C(=O)N[C@H]2C(=O)N[C@H]3C(=O)N[C@H](C(=O)N[C@H](C(=O)O)c4cc(O)cc(O)c4-c4cc3ccc4O)[C@H](O)c3ccc(c(Cl)c3)Oc3cc2cc(c3O[C@@H]2O[C@H](CO)[C@@H](O)[C@H](O)[C@H]2O[C@H]2C[C@](C)(N)[C@H](O)[C@H](C)O2)Oc2ccc(cc2Cl)[C@H]1O` [VAN, reference compound], the “IC50 of positive control antibiotic” value was below 0.125 µg/mL in assay [2] (S. warneri, positive control) and 2 µg/mL in assay [6] (S. aureus ATCC 33591, positive control).
